Data reported in patent US10433551B2, “3-pyridyloxyphenyldihydrouracil compound and use thereof” (Sumitomo Chemical Company, Limited, priority 2016, dated 2019).

Legend:
Assay type in all cases: cell-based
[1] = test system: damping-off fungi (Pythium ultimum); experiment: Test for controlling damping-off fungi, growth in titer plate (absorbance 600 nm); details: 1 μL in 150 μL Czapek medium with mycelial suspension, 23° C., five days
Description: (§1) In the test examples 1 to 4, a non-treated area means an area in which a test was conducted in the same manner as each test example, except that dimethyl sulfoxide was dispensed in place of the present compound diluted with dimethyl sulfoxide.
(§2) Four point five (4.5) milligrams of the present compound was diluted with 100 μL of dimethyl sulfoxide. One (1) μL portion of the diluted liquid was dispensed into a titer plate (96 wells), and thereto was then dispensed 150 μL of a potato dextrose broth medium (PDB medium) containing zoospores of cucumber phytophthora blight fungi (Phytophthora capsici). This plate was cultured at 27° C. for three days, thereby allowing the cucumber phytophthora blight fungi to undergo proliferation, and the absorbance at 600 nm of each well of the titer plate was then measured to determine a degree of growth of the cucumber phytophthora blight fungi. The efficacy was calculated from the determined degree of growth by the below-mentioned “Equation 1”. […]
Four point five (4.5) milligrams of the present compound was diluted with 100 μL of dimethyl sulfoxide. […] This plate was cultured at 23° C. for five days, thereby allowing the damping-off fungi to undergo proliferation, and the absorbance at 600 nm of each well of the titer plate was then measured to determine a degree of growth of the damping-off fungi. […]

[2] = test system: cucumber phytophthora blight fungi (Phytophthora capsici); experiment: Test for controlling cucumber phytophthora blight fungi, growth in titer plate (absorbance 600 nm); details: Test Example 1; 4.5 mg in 100 μL DMSO, 1 μL in 150 μL PDB medium with zoospores; 27° C., three days
Description: as §1
Four point five (4.5) milligrams of the present compound was diluted with 100 μL of dimethyl sulfoxide. One (1) μL portion of the diluted liquid was dispensed into a titer plate (96 wells), and thereto was then dispensed 150 μL of a potato dextrose broth medium (PDB medium) containing zoospores of cucumber phytophthora blight fungi (Phytophthora capsici). This plate was cultured at 27° C. for three days, thereby allowing the cucumber phytophthora blight fungi to undergo proliferation, and the absorbance at 600 nm of each well of the titer plate was then measured to determine a degree of growth of the cucumber phytophthora blight fungi. The efficacy was calculated from the determined degree of growth by the below-mentioned “Equation 1”. As a result, the efficacy of the Present compound was 90% or more. Efficacy=100×(X−Y)/X “Equation 1” where X: Degree of fungal growth in non-treated area Y: Degree of fungal growth in treated area

[3] = test system: barley scald fungi (Rhynchosporium secalis); experiment: Test for controlling barley scald fungi, growth in titer plate (absorbance 600 nm); details: Test Example 4; 4.5 mg in 100 μL DMSO, 1 μL in 150 μL PDB medium with spores; 18° C., seven days
Description: as §1, §2
Four point five (4.5) milligrams of the present compound was diluted with 100 μL of dimethyl sulfoxide. […] This plate was cultured at 18° C. for seven days, thereby allowing the barley scald fungi to undergo proliferation, and the absorbance at 600 nm of each well of the titer plate was then measured to determine a degree of growth of the barley scald fungi. […]

Measured: efficacy

CCOC(=O)COc1ncccc1Oc1cc(N2C(=O)CC(O)(C(F)(F)F)NC2=O)c(F)cc1Cl (stereo not shown) [Present compound]
≥ 90%: [1]; Test Example 2, 4.5 mg in 100 μL DMSO | [1]; Test Example 3, 1.12 mg in 100 μL DMSO | [2] | [3]
